Values quoted from earlier work as cited in patent US20180273780A1, “WATER-BASED INK COMPOSITION FOR INK JET RECORDING AND COLORING MATERIAL LIQUID” (Seiko Epson Corporation, priority 2017, published 2018).

Row | water-octanol partition coefficient (log P) | Compound
1 | 0.56 | CCCCOCCOCCO [butyl diglycol]
2 | 1.36 | CCCCCCOCC(O)CO (stereo not drawn) [3-(hexyloxy)-1,2-propanediol]

More lines, now with the values behind:

Row | Compound | water-octanol partition coefficient (log P)
3 | CCCCC(CC)COCCOCCO (stereo not drawn) [diethylene glycol-2-ethylhexyl ether] | 2.4
4 | CCCN1CCCC1=O [1-propyl-2-pyrrolidone] | 0.67
5 | CCCCOCCC(=O)N(C)C [3-butoxy-N,N-dimethylpropanamide] | 0.86
6 | tritrimethylolpropane | 0.97
